Measurements from ChEMBL document CHEMBL3301361, “Experimental in vitro DMPK and physicochemical data on a set of publicly disclosed compounds”.
Converted amounts (≈) assume the structure as drawn.

What was measured:
physchem [1] = test: physchem
physchem [2] = test: physchem; remark: listed apart in the source
in vitro [3] = conditions: Dunkin Hartley, guinea pig, plasma
in vitro [4] = conditions: SD, HW or BN, rat, plasma
in vitro [5] = conditions: mouse, plasma
in vitro [6] = conditions: human, hepatocytes
in vitro [7] = conditions: human, plasma
in vitro [8] = conditions: Beagle, dog, plasma
physchem [9] = conditions: octan-1-ol/water, pH 7.4, LogD7.4
physchem [10] = test: physchem; remark: listed apart in the source
in vitro [11] = conditions: human
in vitro [12] = conditions: hepatocytes
physchem [13] = conditions: pH 7.4 buffer

Row | pKa (physchem [1]) | pKa (physchem [2]) | fraction unbound at 5 h (in vitro [3]) | fraction unbound at 5 h (in vitro [4]) | fraction unbound at 5 h (in vitro [5]) | fraction unbound at 5 h (in vitro [8]) | fraction unbound at 5 h (in vitro [7]; PPB) | logD (physchem [9]) | microsomal CLint (in vitro [11]; liver microsomes) [µL/min/mg] | Compound | also measured
1 | 9.1 | 11 | – | – | – | – | – | – | – | N=C(N)SCCc1cccc(CCSC(=N)N)c1 | –
2 | – | – | 0.0081 | 0.0119 | 0.0149 | – | – | – | – | NC(=O)[C@@H](CCC(F)(F)F)N(Cc1ccc(-c2ncon2)cc1F)S(=O)(=O)c1ccc(Cl)cc1 | –
3 | – | – | 0.0328 | 0.0457 | – | 0.0313 | – | – | – | Cc1nn(-c2ccccc2)c(N)c1-c1ccccc1 | hepatocyte CLint (in vitro [6]): 32.4 µL/min/1e6 cells; fraction unbound at 5 h (in vitro [7]): 0.013
4 | 4.44 | – | – | – | – | – | – | – | – | C#CCn1c(=O)c2c(-c3cncn3C)n(Cc3ccnc4ccc(Cl)cc34)nc2n(CC2CC2)c1=O | –
5 | – | – | 0.17 | 0.0836 | 0.0872 | 0.0705 | 0.0066 | – | – | COc1ccc(CC(=O)NCc2ccccc2-c2ccccc2C(=O)NCCc2cccnc2)cc1 | –
6 | – | – | 0.0928 | 0.0705 | 0.208 | 0.03 | 0.0428 | -0.45 | – | CCS(=O)(=O)c1ccc(-c2cc(C(F)(F)F)ccc2OCC(=O)O)c(C)c1 | pKa (physchem [10]): 3.2
7 | – | 9.6 | 0.101 | – | – | 0.0457 | 0.289 | 0.77 | < 3 | N#Cc1cc(F)c(Cl)cc1O[C@H](CCN)c1ccccc1 | –
8 | – | – | 0.0736 | 0.0293 | – | – | 0.0136 | 2.35 | – | Cc1nn(-c2ccc(F)cc2)c(NS(=O)(=O)c2ccc(C(F)(F)F)cc2)c1C(=O)N[C@@H](C)C(C)(C)C | microsomal CLint (in vitro [11]; microsomes): 10 µL/min/mg; pKa (physchem [10]): 3.4; hepatocyte CLint (in vitro [12]): 5.01 µL/min/1e6 cells
9 | – | – | 0.271 | 0.0418 | – | 0.0736 | 0.0457 | – | – | Cc1ccc(S(=O)(=O)Nc2c(C(=O)N[C@@H](C)C(C)(C)C)c(C)nn2C(C)C)cc1 | hepatocyte CLint (in vitro [6]): < 3 µL/min/1e6 cells; pKa (physchem [10]): 4.5; hepatocyte CLint (in vitro [12]): 10 µL/min/1e6 cells
10 | 5.7 | 9 | – | – | – | – | – | 2.27 | 24 | O=C([C@H]1CCCCN1)N1CCN(c2nc(NCc3ccc(Cl)cc3Cl)c3cccnc3n2)CC1 | hepatocyte CLint (in vitro [12]): 9.88 µL/min/1e6 cells
11 | – | – | 0.489 | 0.329 | 0.339 | – | 0.17 | – | – | c1ccc([C@@H]([C@H](c2ccccc2)N2CCCC2)N2CCCC2)cc1 | –
12 | – | – | 0.489 | 0.339 | 0.271 | – | 0.17 | – | – | c1ccc([C@H]([C@@H](c2ccccc2)N2CCCC2)N2CCCC2)cc1 | –
13 | – | – | 0.072 | – | 0.0041 | – | 0.0801 | – | – | CC#Cc1cncc(-c2ccc3c(c2)C2(N=C(C)C(N)=N2)[C@]2(CC[C@H](OC)CC2)C3)c1 (stereo not given in full) | –
14 | 7.55 | 9.2 | – | – | – | – | – | – | < 3 | Cc1ccccc1C[C@@H](C(=O)O)N1CCC(CN2CCC(Oc3ccc(Cl)c(Cl)c3)CC2)CC1 | solubility thermodynamic (physchem [13]): 12.3 µM (≈ 6.22 µg/mL)
15 | 6.5 | 9.1 | – | – | – | – | – | 2.23 | 6 | O=C(O)C(c1ccccc1)N1CCC(N2CCC(Oc3ccc(Cl)c(Cl)c3)CC2)CC1 (stereo not given) | –
16 | 7.7 | 9.6 | – | – | – | – | – | 2.17 | – | O=C(O)C(c1ccccc1)N1CCC(CN2CCC(Oc3ccc(Cl)c(Cl)c3)CC2)CC1 (stereo not given) | microsomal CLint (in vitro [11]; microsomes): < 3 µL/min/mg; pKa (physchem [10]): 3
17 | 7.7 | 8.9 | – | – | – | – | – | – | 8 | O=C(O)c1ccccc1N1CCC(CN2CCC(Oc3ccc(Cl)c(Cl)c3)CC2)CC1 | pKa (physchem [10]): 3.2
18 | 7.7 | 9.6 | – | – | – | – | – | – | – | O=C(O)c1cccc(CN2CCC(CN3CCC(Oc4ccc(Cl)c(Cl)c4)CC3)CC2)c1 | microsomal CLint (in vitro [11]; microsomes): < 3 µL/min/mg; pKa (physchem [10]): 3.5
19 | 7 | 9.3 | – | – | – | – | 0.314 | – | < 3 | O=C(O)[C@@H](Cc1ccccc1)N1CCC(CN2CCC(Oc3ccc(Cl)c(Cl)c3)CC2)CC1 | –
20 | – | – | 0.715 | 0.285 | 0.465 | 0.591 | 0.204 | 0.66 | – | N#Cc1ccc2ccc(=O)n(CCN3CC[C@@H](NCc4ccc5c(n4)NC(=O)CO5)[C@@H](F)C3)c2c1 | hepatocyte CLint (in vitro [12]): 16.6 µL/min/1e6 cells
21 | 2.28 | 6.04 | – | – | – | – | – | – | – | CC1=NC(c2cccc(-c3cncc(Cl)c3)c2)(C2CC2)N=C1N (stereo not given) | –

Row | Compound | pKa (physchem [1]) | pKa (physchem [2]) | fraction unbound at 5 h (in vitro [3]) | fraction unbound at 5 h (in vitro [4]) | fraction unbound at 5 h (in vitro [5]) | fraction unbound at 5 h (in vitro [8]) | fraction unbound at 5 h (in vitro [7]; PPB) | logD (physchem [9]) | microsomal CLint (in vitro [11]; liver microsomes) [µL/min/mg] | also measured
22 | c1ccc([C@H]([C@@H](c2ccccc2)N2CCCCC2)N2CCCCC2)cc1 | – | – | 0.5 | 0.365 | 0.253 | 0.163 | 0.0606 | – | 13.8 | hepatocyte CLint (in vitro [12]): 12 µL/min/1e6 cells
